Laboratory results taken from US7659240B2, “Mucin immobilized chromatography” (Vertex Pharmaceuticals Incorporated, priority 2002, dated 2010).
Several values for one entry are separate records, joined by “and”; a condition that tells them apart may be missing. Equal entries are not always repeated. Structures can show the parent of a compound that is named as a salt. Where two headings read alike, the source gives them in different places.

Experiments:
[1] = test system: mucin immobilized to IAM.PC.DD2; experiment: HPLC on MIC column (2:1 mucin to PC IAM particles): retention time, k′MIC, derived Km and Peff MIC; settings: for log k′MIC / K′MIC: MIC 2:1; for k′MIC / Retention Time: MIC column 2:1 mucin:IAM, MPS pH 7.4; for Retention Time: isocratic 0.3 ml/min; for Dm: membrane diffusion coefficient calculated from molecular weight
Procedure: [formula] where Dm is the membrane diffusion coefficient of the solute, Km is the membrane equilibrium constant, and L is the membrane thickness (Stein, W., Transport and Diffusion Across Cell Membranes, Academic Press, Orlando, Fla. (1986)). […] Since molecular weight, MW, is proportional to molecular size, Dm may also written as,
[formula] Thus, Dm can be calculated from the molecular weight. Furthermore, Km is calculated by the following equation, Km−(Vm/Vs)k′, [4] where Vm is the volume of the mobile phase, Vs is the internal volume of the stationary phase, and k′ is the partition ratio (Pidgeon and Ong, Chemtech. June, 38-48 (1995)). The partition ratio is determined by the equation, k′−(tr−to)/to, [5] where tr is the retention time of the drug and to is the void volume of the column. Both tr and to can be experimentally determined in order to obtain k′.
Equation 2 can be used to determine Km for a given MIC medium. Both Dm and L are known from the discussion above, and Peff can be calculated for various drugs having known in vivo absorption. For example, a number of drug permeability coefficients, Peff, derived from in vivo experiments are listed in literature. […] See Example 5 below.

[2] = test system: Caco-2; settings: from literature, cited from earlier work
[3] = test system: mucin immobilized to PC IAM particles; experiment: pH and mucin layer thickness dependence of partition ratio on MIC columns (1:2 and 2:1); settings: for k′MIC (1:2): column 1:2, 0.32 μm; for k′MIC (1:2) / k′MIC (2:1): pH 7, Table 9; for (1:2) k′ (pH 3) / (1:2) k′ (pH 5) / (1:2) k′ (pH 7): column 1:2 mucin to PC IAM, 0.32 μm mucin layer; for (1:2) k′ (pH 3) / (2:1) k′ (pH 3): mobile phase pH 3; for (1:2) k′ (pH 5) / (2:1) k′ (pH 5): mobile phase pH 5; for (1:2) k′ (pH 7) / (2:1) k′ (pH 7): mobile phase pH 7; for k′MIC (2:1): column 2:1, 0.36 μm; for (2:1) k′ (pH 3) / (2:1) k′ (pH 5) / (2:1) k′ (pH 7): column 2:1 mucin to PC IAM, 0.36 μm mucin layer
[4] = cited from earlier work
[5] = single-pass perfusions, cited from earlier work
[6] = from literature; cited from earlier work
[7] = determined by linear equation, Table 5
[8] = determined by linear equation, Table 6

SMILES	K′MIC ([1]; Table 5)	k′MIC [1]	Retention Time [1]	Dm [1]	k′MIC (1:2) [3]	(1:2) k′ (pH 3) [3]	(1:2) k′ (pH 5) [3]	(1:2) k′ (pH 7) [3]	k′MIC (2:1) [3]	(2:1) k′ (pH 3) [3]	(2:1) k′ (pH 5) [3]	(2:1) k′ (pH 7) [3]	% Absorbed ([4]; Table 5) [%]	Peff Loc-I-Gut (×10^−4 cm/s) ([5]; Table 5)	Peff Loc-I-Gut (×10^−4 cm/s) ([5]; Table 9)	other results
COCCc1ccc(OCC(O)CNC(C)C)cc1 (centres unmarked) [Metoprolol]	43	43.2857	3.1	0.0015	47.3	50.67	50.67	47.33	35.7	36.14	41.86	35.67	–	–	–	δ = log k′MIC − log k′IAM [1]: 1.14; log k′MIC [1]: 1.64; K′MIC ([1]; Table 6): 43.29; Peff MIC (×10^−4 cm/s) [1, 7]: 1.21 ×10^−4 cm/s; Peff MIC (×10^−4 cm/s) [1, 8]: 1.21 ×10^−4 cm/s; Peff Caco-2 (×10^−6 cm/s) ([2]; Table 5): 23.7 ×10^−6 cm/s; Peff Caco-2 (×10^−6 cm/s) ([2]; Table 6): 23.7 ×10^−6 cm/s
CCOC(=O)[C@H](CCc1ccccc1)N[C@@H](C)C(=O)N1CCC[C@H]1C(=O)O [enalapril maleate]	35.86	35.8571	2.6	0.0020	34	27.33	37.33	34.00	20.7	31.86	21.86	20.67	60	0.2 ×10^−4 cm/s	0.2 ×10^−4 cm/s	Retention Time ([1]; listed as Enalapril maleate): 7.8; k′MIC ([1]; listed as Enalapril maleate): 110.429; Peff MIC (×10^−4 cm/s) [1, 7]: 0.38 ×10^−4 cm/s; stability during the HPLC analyses ([1]; two peaks, hydrolyzed and non-hydrolyzed forms): hydrolyzed to enalaprilat; Bioavailability ([4]; footnotes of Table 4 that tell the two cimetidine and two enalapril maleate lines apart): ^4Bioavailability = 60%;; percent absorption value ([4]; reported in literature, either of two values): 60 and 100
COc1ccc2cc([C@H](C)C(=O)O)ccc2c1 [Naproxen]	–	–	–	–	–	–	–	–	–	–	–	–	100	8.0 ×10^−4 cm/s	8.0 ×10^−4 cm/s	% Absorbed ([4]; Table 6): 100%; Peff Loc-I-Gut (×10^−4 cm/s) ([5]; Table 6): 8.0 ×10^−4 cm/s
C=CCc1ccccc1OCC(O)CNC(C)C (centres unmarked) [Alprenolol]	–	46.1429	3.3	0.0035	–	54.00	64.00	42.33	–	43.29	49.00	82.33	–	–	–	–
CC(C)NCC(O)COc1ccc(CC(N)=O)cc1 (centres unmarked) [Atenolol]	–	–	–	–	39	39.00	39.00	39.00	37	29.00	31.86	37.33	50	0.15 ×10^−4 cm/s	0.2 ×10^−4 cm/s	% Absorbed ([4]; Table 6): 50%; Peff Loc-I-Gut (×10^−4 cm/s) ([5]; Table 6): 0.15 ×10^−4 cm/s
CC(=O)Oc1ccccc1C(=O)O [acetyl salicylic acid]	–	38.5714	2.8	0.0055	–	34.00	40.67	22.33	–	30.43	24.71	20.67	–	–	–	–
NS(=O)(=O)c1cc(C(=O)O)c(NCc2ccco2)cc1Cl [Furosemide]	–	–	–	–	35.7	40.67	37.33	35.67	25.7	30.43	27.57	25.67	60	0.3 ×10^−4 cm/s	0.3 ×10^−4 cm/s	–
CN(CC(=O)O)C(=N)N [Creatine]	30.43	30.4286	2.2	0.0088	25.7	39.00	39.00	39.00	24	20.43	23.29	32.33	0	0.3 ×10^−4 cm/s	0.3 ×10^−4 cm/s	Peff MIC (×10^−4 cm/s) [1, 7]: −0.22 ×10^−4 cm/s
CC(C(=O)O)c1cccc(C(=O)c2ccccc2)c1 (centres unmarked) [Ketoprofen]	52	52.5714	3.8	0.0039	82.3	25.67	29.00	82.33	70.7	20.43	27.57	70.67	–	–	–	–
C[C@](N)(Cc1ccc(O)c(O)c1)C(=O)O [α-methyldopa]	33.29	33.2857	2.4	0.0047	–	–	–	–	–	–	–	–	0	0.2 ×10^−4 cm/s	–	Peff MIC (×10^−4 cm/s) [1]: 0.10 ×10^−4 cm/s
Cc1cc(=O)n(-c2ccccc2)n1C [Antipyrine]	77.57	77.5714	5.5	0.0053	50.7	54.00	54.00	50.67	40.7	40.43	39.00	40.67	–	5.6 ×10^−4 cm/s	5.6 ×10^−4 cm/s	log k′IAM [6]: −0.02; δ = log k′MIC − log k′IAM [1]: 1.91; log k′MIC [1]: 1.89; % Absorbed ([4]; in vivo): 100%
NC(=O)N1c2ccccc2C=Cc2ccccc21 [carbamazepine]	59.00	59.0000	4.2	0.0042	–	–	–	–	–	–	–	–	–	4.3 ×10^−4 cm/s	–	K′MIC ([1]; Table 6): 59.00; Peff MIC (×10^−4 cm/s) [1, 7]: 2.96 ×10^−4 cm/s; Peff MIC (×10^−4 cm/s) [1, 8]: 2.96 ×10^−4 cm/s; Peff Caco-2 (×10^−6 cm/s) ([2]; Table 5): 19.9 ×10^−6 cm/s; Peff Caco-2 (×10^−6 cm/s) ([2]; Table 6): 19.9 ×10^−6 cm/s; Peff Loc-I-Gut (×10^−4 cm/s) ([5]; Table 6): 4.3 ×10^−4 cm/s
O=C(O)c1cc(/N=N/c2ccc(S(=O)(=O)Nc3ccccn3)cc2)ccc1O [sulfasalazine]	–	71.8571	5.1	0.0025	–	87.33	85.67	24.00	–	70.43	67.57	22.33	–	–	–	–
CC(=O)Nc1ccc(O)cc1 [acetaminophen]	–	38.2857	2.8	0.0066	–	64.00	65.67	64.00	–	50.43	51.86	62.33	–	–	–	–
Cn1c(=O)c2c(ncn2C)n(C)c1=O [Caffeine]	–	37.5714	2.7	0.0051	–	44.00	44.00	45.67	–	34.71	34.71	39.00	–	–	–	–
C[C@]12C[C@H](O)[C@H]3[C@@H](CCC4=CC(=O)CC[C@@]43C)[C@@H]1CC[C@@H]2C(=O)CO [corticosterone]	–	60.4286	4.3	0.0029	–	24.00	22.33	24.00	–	20.43	20.43	24.00	–	–	–	log k′IAM [6]: 1.60; δ = log k′MIC − log k′IAM [1]: 0.18; log k′MIC [1]: 1.78; % Absorbed ([4]; Table 7): 100%
